Results: US20190293584A1, “Detection of Living Cells” (priority 2018, published 2019)
Counter-ions that a name gives are not always drawn.

Key:
M. smegmatis [1] = type: cell-based, Mycobacterium smegmatis
M. smegmatis [2] = conditions: known from literature; cited from earlier work
M. tuberculosis = conditions: known from literature; cited from earlier work
M. bovis BCG [3] = type: cell-based, Mycobacterium bovis BCG
M. bovis BCG [4] = conditions: known from literature; cited from earlier work
[5] = system: most other non-mycobacterial species; conditions: known from literature; cited from earlier work
mycobacteria = conditions: known from literature; cited from earlier work
[6] = system: cocktail of S. aureus and P. aeruginosa; assay: m-EIS bulk capacitance vs time, incompletely decontaminated artificial sputum with non-mycobacterial cultures; type: cell-based, Staphylococcus aureus and Pseudomonas aeruginosa; conditions: incomplete decontamination: NaOH-NALC approximately 1 minute, 0.25 N NaOH
Text: All m-EIS readings were done post digestion and decontamination of the samples using the NALC-NaOH technique. In the first case, the sample has no bacteria and no changes in charge storage (bulk capacitance) should occur at any point in time. It is expected to see a flat line as there should be no change in the bulk capacitance over time. In case three, where the sample contains gram-positive and gram-negative bacteria, but no mycobacteria, all organisms should be killed during decontamination (pre-treatment) itself, and the addition of the antibiotics is not expected to cause any changes to the measured value of bulk capacitance. However, if there are mycobacteria in the sample (as in case […]), the mycobacteria should survive the decontamination process and continue to grow in the presence of Carbenicillin (case 2B). However, they will die in the presence of amikacin (case 2A). […]
The experimental protocol requires periodic (e.g., every hour) performance of an electrical “scan” of sample aliquots in a microfluidic cassette, wherein electrical impedance was measure at multiple (200) frequencies ranging from 1 kHz to 100 MHz. […] At each frequency (ω), both the in-phase and out-of-phase components of the electrical impedance, Z, (resistance (R) and reactance (X)) were measured. […]

Row | SMILES | time-to-detection (TTD): earliest time at which bulk capacitance is significantly lower than baseline (M. smegmatis [1]; M. smegmatis in artificial sputum after NaOH-NALC decontamination, initial loads (1 to 5)×10^5 CFU/ml, amikacin 32 μg/ml, carbenicillin 25 μg/ml) [h] | bactericidal effect (M. smegmatis [2]) | bactericidal effect (M. tuberculosis) | time-to-detection (TTD) (M. bovis BCG [3]; M. bovis BCG in artificial sputum, exposed to amikacin) [h] | bactericidal effect (M. bovis BCG [4]) | change of bulk capacitance (impedance values) over time (M. smegmatis [1]; Case 2: M. smegmatis, P aeruginosa and S. aureus, after decontamination) | activity against non-mycobacterial species [5] | activity against mycobacteria (mycobacteria) | rate of increase in bulk capacitance (M. bovis BCG [3]; Case 2, M. bovis BCG, 3 hours observation) | change of bulk capacitance over time (M. bovis BCG [3]; Case 2, M. bovis BCG, duration of observation 3 hours) | change of bulk capacitance over time [6]
1 | NCC[C@H](O)C(=O)N[C@@H]1C[C@H](N)[C@@H](O[C@H]2O[C@H](CN)[C@@H](O)[C@H](O)[C@H]2O)[C@H](O)[C@H]1O[C@H]1O[C@H](CO)[C@@H](O)[C@H](N)[C@H]1O [Amikacin] | < 3 | bactericidal effects | bactericidal effects | < 3 | bactericidal effects |  |  |  |  |  | 
2 | CC1(C)S[C@@H]2[C@H](NC(=O)C(C(=O)O)c3ccccc3)C(=O)N2[C@H]1C(=O)O (some centres unmarked) [Carbenicillin, Carbenicillin disodium salt] |  |  |  |  |  | not found to show any decrease over time | bactericidal | ineffective | negligible | no growth was seen | decreases in bulk capacitance were observed over time
